This note sets out measurements from patent US10829501B2 (BRISTOL-MYERS SQUIBB COMPANY, priority 2016, dated 2020).

Structures can show the parent of a compound that is named as a salt. Where only a bound is given, the exact number is not on record here.

ROCK2, sequence (O75116 whole entry, species assumed): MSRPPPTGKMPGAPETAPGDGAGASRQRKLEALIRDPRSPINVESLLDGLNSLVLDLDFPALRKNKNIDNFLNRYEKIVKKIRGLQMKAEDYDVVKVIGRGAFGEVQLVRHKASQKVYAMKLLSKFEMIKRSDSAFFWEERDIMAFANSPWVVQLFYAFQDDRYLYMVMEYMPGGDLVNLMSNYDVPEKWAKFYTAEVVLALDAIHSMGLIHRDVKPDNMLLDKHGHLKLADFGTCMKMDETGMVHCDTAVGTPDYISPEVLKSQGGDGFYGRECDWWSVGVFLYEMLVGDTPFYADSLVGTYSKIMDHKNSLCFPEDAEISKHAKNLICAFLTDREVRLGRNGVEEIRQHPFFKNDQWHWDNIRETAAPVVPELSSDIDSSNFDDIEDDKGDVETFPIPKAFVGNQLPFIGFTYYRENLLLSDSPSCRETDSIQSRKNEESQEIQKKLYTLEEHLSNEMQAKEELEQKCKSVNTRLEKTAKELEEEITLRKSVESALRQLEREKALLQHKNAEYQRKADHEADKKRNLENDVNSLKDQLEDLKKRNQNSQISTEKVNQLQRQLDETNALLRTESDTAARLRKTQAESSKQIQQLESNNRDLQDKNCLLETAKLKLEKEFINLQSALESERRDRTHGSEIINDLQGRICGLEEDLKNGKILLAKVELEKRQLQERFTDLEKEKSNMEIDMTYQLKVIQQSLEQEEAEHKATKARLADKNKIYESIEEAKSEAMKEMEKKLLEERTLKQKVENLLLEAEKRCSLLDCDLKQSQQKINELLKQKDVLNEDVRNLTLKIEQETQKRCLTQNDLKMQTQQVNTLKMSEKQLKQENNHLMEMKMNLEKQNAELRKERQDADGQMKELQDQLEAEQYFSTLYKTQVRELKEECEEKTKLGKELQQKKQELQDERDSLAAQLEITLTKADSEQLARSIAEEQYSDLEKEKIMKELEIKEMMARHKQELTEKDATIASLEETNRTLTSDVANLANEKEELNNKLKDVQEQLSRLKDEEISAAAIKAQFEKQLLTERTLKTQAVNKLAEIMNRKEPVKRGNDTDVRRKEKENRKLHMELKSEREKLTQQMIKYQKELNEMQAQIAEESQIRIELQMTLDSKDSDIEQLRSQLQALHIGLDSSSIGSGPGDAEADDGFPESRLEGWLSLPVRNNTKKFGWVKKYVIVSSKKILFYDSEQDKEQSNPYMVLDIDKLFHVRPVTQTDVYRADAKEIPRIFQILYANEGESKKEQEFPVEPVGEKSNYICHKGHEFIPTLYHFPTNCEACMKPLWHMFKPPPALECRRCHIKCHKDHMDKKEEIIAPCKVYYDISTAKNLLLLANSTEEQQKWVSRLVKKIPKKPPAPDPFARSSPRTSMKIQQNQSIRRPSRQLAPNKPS

The first assay has as its target ROCK2 (Homo sapiens, UniProt O75116). The assay is described as follows: ROCK2 kinase inhibition assay (LABCHIP 3000 Reader, FITC peptide substrate).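 Note: rho kinase reaction read by separating phosphorylated from unphosphorylated peptide on chip, with inhibition of kinase activity computed per concentration across a dose-response series.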
Settings: not given
On to `CC(C)(O)COc1ccc2c(C(=O)NC3CC4(C3)CC(Oc3cc(-c5cccc(C(N)C(=O)O)c5)ccc3C(N)=O)C4)cnn2c1` (stereo not shown) [Example 257, 2-amino-2-(4′-carbamoyl-3′-((6-(6-(2-hydroxy-2-methylpropoxy)pyrazolo[1,5-a]pyridine-3-carboxamido)spiro[3.3]heptan-2-yl)oxy)-[1,1′-biphenyl]-3-yl)acetic Acid], for which the IC50 (in general, the concentration at which inhibition is half-maximal) lay within 5 to 50 nM. Turning to `COc1ccc(C(N)=O)c(OC2CC3(CC(NC(=O)c4cnn5cc(OCC(C)(C)O)ccc45)C3)C2)c1` (stereo not shown) [Example 210, N-(6-(2-carbamoyl-5-methoxyphenoxy)spiro[3.3]heptan-2-yl)-6-(2-hydroxy-2-methylpropoxy)pyrazolo[1,5-a]pyridine-3-carboxamide], the IC50 lay within 5 to 50 nM. Compound `Cc1ccc(OC2CC3(CC(NC(=O)c4cnn5cc(OCC(C)(C)O)ccc45)C3)C2)c(C(N)=O)c1` (stereo not shown) [Example 218, N-(6-(2-carbamoyl-4-methylphenoxy)spiro[3.3]heptan-2-yl)-6-(2-hydroxy-2-methylpropoxy)pyrazolo[1,5-a]pyridine-3-carboxamide] returned an IC50 of 250 to 2500 nM.

As to `NC(=O)c1cccnc1O[C@H]1CC2(C[C@H](NC(=O)c3nnn4cc(-c5cnn(C6CC6)c5)ccc34)C2)C1` (stereo partly drawn) [Example 364, N-((aR)-6-((3-carbamoylpyridin-2-yl)oxy)spiro[3.3]heptan-2-yl)-6-(1-cyclopropyl-1H-pyrazol-4-yl)-[1,2,3]triazolo[1,5-a]pyridine-3-carboxamide], the IC50 was less than 5 nM. For `CC(C)(O)COc1ccc2c(C(=O)NC3CC4(C3)CC(Oc3cc(-c5cccc(C(N)=O)c5)ccc3C(N)=O)C4)cnn2c1` (stereo not shown) [Example 289, 3′-((6-(6-(2-hydroxy-2-methylpropoxy)pyrazolo[1,5-a]pyridine-3-carboxamido)spiro[3.3]heptan-2-yl)oxy)-[1,1′-biphenyl]-3,4′-dicarboxamide], the IC50 was less than 5 nM. On the same count and under the same terms, the same measure for `CN1CCc2nc(-c3cc(C#N)cc(C(=O)N[C@H]4CC5(C4)C[C@H](Oc4ncccc4C(N)=O)C5)c3)sc2C1` (stereo partly drawn) [Example 200, 2-(((aR)-6-(3-cyano-5-(5-methyl-4,5,6,7-tetrahydrothiazolo[5,4-c]pyridin-2-yl)benzamido)spiro[3.3]heptan-2-yl)oxy)nicotinamide, bis-trifluoroacetate]: 5 to 50 nM; for `CC(C)NS(=O)(=O)c1ccccc1C(=O)N[C@H]1CC2(C1)C[C@H](Oc1ncccc1C(N)=O)C2` (stereo partly drawn) [Example 138, 2-(((aR)-6-(2-(N-isopropylsulfamoyl)benzamido)spiro[3.3]heptan-2-yl)oxy)nicotinamide, trifluoroacetate]: 250 to 2500 nM. In the case of `Cn1ncc2cc(C(=O)N[C@H]3CC4(C3)C[C@H](Oc3ncccc3C(N)=O)C4)ccc21` (stereo partly drawn) [Example 68, N-((aR)-6-((3-carbamoylpyridin-2-yl)oxy)spiro[3.3]heptan-2-yl)-1-methyl-1H-indazole-5-carboxamide, trifluoroacetae], the IC50 was 50 to 250 nM. Still for that read-out and setting: the same measure for `NC(=O)c1ccccc1O[C@H]1CC2(C[C@H](NC(=O)c3cnn4cc(OCCC(F)(F)F)ccc34)C2)C1` (stereo partly drawn) [Example 33, N-[(aR)-6-(2-carbamoylphenoxy)spiro [3.3]heptan-2-yl]-6-(3,3,3-trifluoropropoxy) pyrazolo[1,5-a]pyridine-3-carboxamide]: less than 5 nM; for `NC(=O)c1cccnc1O[C@H]1CC2(C[C@H](NC(=O)c3cnc4cc(OC5CC(F)(F)C5)ccn34)C2)C1` (stereo partly drawn) [Example 360, N-((aR)-6-((3-carbamoylpyridin-2-yl)oxy)spiro[3.3]heptan-2-yl)-7-(3,3-difluorocyclobutoxy)imidazo[1,2-a]pyridine-3-carboxamide]: 5 to 50 nM; for `[H][C@]1(Oc2ncccc2C(N)=O)C[C@@]2(C[C@H](NC(=O)c3nn(C(F)F)c4cc(N5CCOCC5)ccc34)C2)C1` (stereo partly drawn) [Example 372, N-((aR)-6-((3-carbamoylpyridin-2-yl)oxy)spiro[3.3]heptan-2-yl)-1-(difluoromethyl)-6-morpholino-1H-indazole-3-carboxamide]: less than 5 nM. As for `CC(C)(O)COc1ccc2c(C(=O)NC3CC4(C3)CC(Oc3cc(N5CCOCC5)ccc3C(N)=O)C4)cnn2c1` (stereo not shown) [Example 230, N-(6-(2-carbamoyl-5-morpholinophenoxy)spiro[3.3]heptan-2-yl)-6-(2-hydroxy-2-methylpropoxy)pyrazolo[1,5-a]pyridine-3-carboxamide], the IC50 lay in the range of 50 to 250 nM. Same read-out and setting: in the case of `NC(=O)c1ccccc1O[C@H]1CC2(C[C@H](NC(=O)c3cnn4c(C5CC5)c(OCCO)ccc34)C2)C1` (stereo partly drawn) [Example 31, N-[(aR)-6-(2-carbamoylphenoxy)spiro [3.3]heptan-2-yl]-7-cyclopropyl-6-(2-hydroxyethoxy)pyrazolo[1,5-a]pyridine-3-carboxamide] it was 5 to 50 nM; in that of `[H][C@]1(Oc2ncccc2C(N)=O)C[C@]2(C[C@@H](NC(=O)c3cn4cc(OC)ccc4n3)C2)C1` (stereo partly drawn) [Example 464, N-((aR)-6-((3-carbamoylpyridin-2-yl)oxy)spiro[3.3]heptan-2-yl)-6-methoxyimidazo[1,2-a]pyridine-2-carboxamide, TFA Salt], 250 to 2500 nM.

`CC(C)(O)COc1ccc2c(C(=O)NC3CC4(C3)CC(Oc3ccc(F)cc3C(N)=O)C4)cnn2c1` (stereo not shown) [Example 270, N-(6-(2-carbamoyl-4-fluorophenoxy)spiro[3.3]heptan-2-yl)-6-(2-hydroxy-2-methylpropoxy)pyrazolo[1,5-a]pyridine-3-carboxamide] had an IC50 of 50 to 250 nM. For the compound `CC(C)(O)COc1ccc2c(C(=O)N[C@H]3CC4(C3)C[C@H](Oc3nnccc3C(N)=O)C4)cnn2c1` (stereo partly drawn) [Example 48, N-((aR)-6-((4-carbamoylpyridazin-3-yl)oxy)spiro[3.3]heptan-2-yl)-6-(2-hydroxy-2-methylpropoxy)pyrazolo[1,5-a]pyridine-3-carboxamide], the IC50 lay within 50 to 250 nM.

As to `NC(=O)c1cccnc1O[C@H]1CC2(C[C@H](NC(=O)c3cnc4ccccc4c3)C2)C1` (stereo partly drawn) [Example 72, N-((aR)-6-((3-carbamoylpyridin-2-yl)oxy)spiro[3.3]-heptan-2-yl)quinoline-3-carboxamide, trifluoroacetate], the IC50 lay within 5 to 50 nM. Compound `[2H]C([2H])([2H])n1nc2cc(F)ccc2c1C(=O)N[C@H]1CC2(C1)C[C@H](Oc1ncccc1C(N)=O)C2` (stereo partly drawn) [Example 176, 6-fluoro-2-(^2H3)methyl-N-[(aR)-6-[(3-carbamoylpyridin-2-yl)oxy]spiro[3.3]heptan-2-yl]-2H-indazole-3-carboxamide, trifluoroacetate] had an IC50 of 250 to 2500 nM. The compound `CC(C)(O)COc1ccc2c(C(=O)N[C@H]3CC4(C3)C[C@H](Oc3ncccc3C(N)=O)C4)nn(C(C)(C)C(N)=O)c2c1` (stereo partly drawn) [Example 412, 1-(1-amino-2-methyl-1-oxopropan-2-yl)-N-((aR)-6-((3-carbamoylpyridin-2-yl)oxy)spiro[3.3]heptan-2-yl)-6-(2-hydroxy-2-methylpropoxy)-1H-indazole-3-carboxamide, TFA] gave an IC50 of 5 to 50 nM.

For `NC(=O)c1cccnc1O[C@H]1CC2(C[C@H](NC(=O)c3cnn4c(C5CC5)c(OCC5CCO5)ccc34)C2)C1` (stereo partly drawn) [Example 344, N-((aR)-6-((3-carbamoylpyridin-2-yl)oxy)spiro[3.3]heptan-2-yl)-7-cyclopropyl-6-(oxetan-2-ylmethoxy)pyrazolo[1,5-a]pyridine-3-carboxamide], the IC50 was 5 to 50 nM. `NC(=O)c1cccnc1O[C@H]1CC2(C[C@H](NC(=O)c3cnn4cc(N5CCC(F)(F)CC5)ccc34)C2)C1` (stereo partly drawn) [Example 316, N-((aR)-6-((3-carbamoylpyridin-2-yl)oxy)spiro[3.3]heptan-2-yl)-6-(4,4-difluoropiperidin-1-yl)pyrazolo[1,5-a]pyridine-3-carboxamide] showed an IC50 of less than 5 nM. Compound `NC(=O)c1cccnc1O[C@H]1CC2(C[C@H](NC(=O)c3cnn4cc(OCCCN5CCCC5=O)ccc34)C2)C1` (stereo partly drawn) [Example 124, N-((aR)-6-((3-carbamoylpyridin-2-yl)oxy)spiro[3.3]heptan-2-yl)-6-(3-(2-oxopyrrolidin-1-yl)propoxy) pyrazolo[1,5-a]pyridine-3-carboxamide, trifluoroacetate] came in with an IC50 of 5 to 50 nM. `[H][C@]1(Oc2ncccc2C(N)=O)C[C@@]2(C[C@H](NC(=O)c3cn4nc(OC)ccc4n3)C2)C1` (stereo partly drawn) [Example 59, N-((aR)-6-((3-carbamoylpyridin-2-yl)oxy)spiro[3.3]heptan-2-yl)-6-methoxyimidazo[1,2-b]pyridazine-2-carboxamide] gave an IC50 of 250 to 2500 nM. In turn, `CC(C)(O)COc1ccc2c(C(=O)NC3CC4(C3)CC(Oc3cc(O)ccc3C(N)=O)C4)cnn2c1` (stereo not shown) [Example 259, N-(6-(2-carbamoyl-5-hydroxyphenoxy)spiro[3.3]heptan-2-yl)-6-(2-hydroxy-2-methylpropoxy)pyrazolo[1,5-a]pyridine-3-carboxamide] showed an IC50 of 5 to 50 nM.

Compound `CC(C)(O)COc1ccc2c(C(=O)NC3CC4(C3)CC(Oc3cc(-c5ncccn5)ccc3C(N)=O)C4)cnn2c1` (stereo not shown) [Example 222, N-(6-(2-carbamoyl-5-(pyrimidin-2-yl)phenoxy)spiro[3.3]heptan-2-yl)-6-(2-hydroxy-2-methylpropoxy)pyrazolo[1,5-a]pyridine-3-carboxamide] had an IC50 of 5 to 50 nM.

`CC(C)(O)COc1ccc2c(C(=O)NC3CC4(C3)CC(Oc3cc(-c5cnn(C6CC6)c5)ccc3C(N)=O)C4)cnn2c1` (stereo not shown) [Example 277, N-(6-(2-carbamoyl-5-(1-cyclopropyl-1H-pyrazol-4-yl)phenoxy)spiro[3.3]heptan-2-yl)-6-(2-hydroxy-2-methylpropoxy)pyrazolo[1,5-a]pyridine-3-carboxamide] showed an IC50 of 5 to 50 nM.

The same assay, now with this note: read-out: ROCK2 Activity (ROCK2 IC50); 5 μM ATP, 1.5 μM peptide substrate, pH 7.5.
Take `NC(=O)c1cccnc1OC1CC2(CC(NC(=O)c3cc(N4CC5CC4CO5)cc(C(F)(F)F)c3)C2)C1` [Example 452, 2-(((aR)-6-(3-(2-oxa-5-azabicyclo[2.2.1]heptan-5-yl)-5-(trifluoromethyl)benzamido)spiro[3.3]heptan-2-yl)oxy)nicotinamide]: the IC50 was 5 to 50 nM. As for “2-(((aR)-6-(1- (pyridin-2-yl)-5- (trifluoromethyl)- 1H-pyrazole-4- carboxamido) spiro[3.3]heptan-2- yl)oxy) nicotinamide [Example 129]”, the IC50 is 250 to 2500 nM.
